Experimental data taken from patent publication US4542021A, “Antitumor compositions for non-injection administration” (Yamasa Shoyu Kabushiki Kaisha, priority 1978, dated 1985).
Where a name gives a salt, the structure may show the parent alone. Read-outs that look alike come from different tables or passages of the source.

What was measured:
L1210 leukemia = assay: Therapeutic test on L1210 leukemia (oral, once a day); format: in vivo, BDF1 mice; settings: Mus musculus, read-out: % ILS (increase in life span)
Procedure: The L1210 leukemic cell suspension (1×10^5 cells/0.2 ml) was implanted intraperitoneally in BDF1 mice (males, 18 to 22 g, females, 16 to 20 g) (7 mice per group). From 24 hours after the implantation to the 5th day thereafter, the predetermined doses of the compounds to be tested were orally administered to the mice consecutively once a day. The compounds to be tested were dissolved or suspended in a phosphate-bufferedsalt solution (PBS) containing 0.5% carboxymethylcellulose, and given at a dose rate of 0.1 ml per 10 g of each mouse's body weight. To a control group, only the same solvent as used for the dissolution of the compounds to be tested was administered in the same way. The mean survival times (MST) for each group were calculated, and the corresponding increase in life span (%ILS) was obtained in accordance with the following formula, the results of which are shown in Table 1. [formula]

[1] = Acute toxicity test, oral (Test Example 5); parameters: species or system ICR-JCL mice; settings: mouse, in vivo, neutralized ester, male mice, 14th day
Procedure: An ara-CMP ester was neutralized and dissolved in saline containing 0.5% of carboxymethylcellulose, and the resulting solution was orally administered to ICR-JCL mice (males, 24 to 26 g) in a dose of 0.2 ml per 10 g of each mouse's body weight.

B16 melanoma = assay: Effectiveness against B16 melanoma (oral, 3 times a week); format: in vivo, BDF1 mice
Procedure: The B16 melanoma cells (1×10^6 cells) were implanted to the right side-abdominal hypoderms of BDF1 mice (male, 18 to 22 g). From the 13th day after the implantation to death the compounds to be tested were administered orally 3 times a week. The compounds to be tested were dissolved in a phosphate-buffered salt solution (PBS) containing 0.5% carboxymethyl-cellulose to a suitable concentration, and given to the mice at a dose rate of 0.1 ml per 10 g of each mouse's body weight. The increases in life span (%ILS) were calculated in accordance with the same formula as described in Test Example 1.

L1210 leukemic cells [2] = assay: Experimental tumor proliferation model in the lymph nodes, single administration on sixth day; format: in vivo, BDF1 mice; settings: ip, once on sixth day
Procedure: (§1) L1210 leukemic cells (1×10^6 cells/0.05 ml) were implanted to the right inner-thigh hypoderms of BDF1 mice (males, 18 to 22 g). From one day after the transplantation, the compounds to be tested were administered intraperitoneally or orally to the mice once a day consecutively for 6 days. The compounds being tested were dissolved in a phosphate-buffered salt solution (PBS) containing 0.5% carboxymethylcellulose to a suitable concentration, and administered to the mice at a dose rate of 0.1 ml per 10 g of each mouse's body weight. The increases in life span (%ILS) were calculated similarly as in Test Example 1.
Furthermore, in a similar manner, each of the test compounds was administered only once on the sixth day after implantation.

L1210 leukemic cells [3] = assay: Experimental tumor proliferation model in the lymph nodes, once a day for 6 days; format: in vivo, BDF1 mice; settings: ip
Procedure: as §1

[4] = L1210, 720 h, oral, 100 mg/kg/day, > means some mice survived the test period (30 days)
[5] = L1210, 720 h, oral, 200 mg/kg/day, > means some mice survived the test period (30 days)
[6] = L1210, 720 h, oral, 400 mg/kg/day, > means some mice survived the test period (30 days)

Compound	ILS at 100 mg/kg/day (L1210 leukemia; [4]) [%]	ILS at 200 mg/kg/day (L1210 leukemia; [5]) [%]	ILS at 25 mg/kg/day (L1210 leukemia; L1210, oral) [%]	ILS at 50 mg/kg/day (L1210 leukemia; L1210, oral) [%]	ILS at 400 mg/kg/day (L1210 leukemia; [6]) [%]	further results
CCCCCCCCCCCCCCCCCCCCOP(=O)(O)OC[C@H]1O[C@@H](n2ccc(N)nc2=O)[C@@H](O)[C@@H]1O [C20-ara-CMP ester, ara-CMP-eicosyl ester]	126	> 199	60	90		ILS at 6.25 mg/kg/day (L1210 leukemia; L1210, oral, 6.25 mg/kg/day): 19%; ILS at 12.5 mg/kg/day (L1210 leukemia; L1210, oral): 39%; LD50 at 336 h [1]: 2720 mg/kg
CCCCCCCCCCCCCCCCCCCCCCCOP(=O)(O)OC[C@H]1O[C@@H](n2ccc(N)nc2=O)[C@@H](O)[C@@H]1O [C23-ara-CMP ester, ara-CMP-tricosyl ester]	81	110	51	65	128	ILS at 12.5 mg/kg/day (L1210 leukemia; L1210, oral): 29%
Nc1ccn([C@@H]2O[C@H](CO)[C@@H](O)[C@@H]2O)c(=O)n1 [ara-C (hydrochloride), 1-β-D-arabinofuranosyl cytosine, reference compound]	22	34			67	Increase in life span (% ILS) (B16 melanoma; 100 mg/kg): 22%; Mean survival time (MST ± SE) (B16 melanoma; 100 mg/kg): 26.8 ± 1.50; Increase in life span (% ILS) (B16 melanoma; 200 mg/kg): -5%; Mean survival time (MST ± SE) (B16 melanoma; 200 mg/kg): 21.0 ± 1.76; Increase in life span (% ILS) (B16 melanoma; 400 mg/kg): 1%; Mean survival time (MST ± SE) (B16 melanoma; 400 mg/kg): 22.2 ± 2.82; Increase in life span (% ILS) (L1210 leukemic cells [2]; 250 mg/kg): 36%; Mean survival time (MST ± SE) (L1210 leukemic cells [2]; 250 mg/kg): 9.9 ± 0.13; Increase in life span (% ILS) (L1210 leukemic cells [2]; 500 mg/kg): 49%; Mean survival time (MST ± SE) (L1210 leukemic cells [2]; 500 mg/kg): 10.9 ± 0.23; Increase in life span (% ILS) (L1210 leukemic cells [3]; 50 mg/kg/day): 101%; Mean survival time (MST ± SE) (L1210 leukemic cells [3]; 50 mg/kg/day): 13.9 ± 0.59; Increase in life span (% ILS) (L1210 leukemic cells [3]; 100 mg/kg/day): 110%; Mean survival time (MST ± SE) (L1210 leukemic cells [3]; 100 mg/kg/day): 14.5 ± 0.62
CCCCCCCCCCOP(=O)(O)OC[C@H]1O[C@@H](n2ccc(N)nc2=O)[C@@H](O)[C@@H]1O [ara-CMP decyl ester, reference compound]	8	36	0	4	39	
CCCCCCCCCCCCCCCCCCCCCCCCCCOP(=O)(O)OC[C@H]1O[C@@H](n2ccc(N)nc2=O)[C@@H](O)[C@@H]1O [ara-CMP hexacosyl ester, reference compound]	27	52	14	23	86	
COP(=O)(O)OC[C@H]1O[C@@H](n2ccc(N)nc2=O)[C@@H](O)[C@@H]1O [ara-CMP methyl ester, reference compound]						ILS at 100 mg/kg/day (L1210 leukemia; L1210, po, 720 h): 13%; ILS at 200 mg/kg/day (L1210 leukemia; L1210, po, 720 h): 48%; ILS at 400 mg/kg/day (L1210 leukemia; L1210, po, 720 h): 65%
CCCCCCCCCCCOP(=O)(O)OC[C@H]1O[C@@H](n2ccc(N)nc2=O)[C@@H](O)[C@@H]1O [ara-CMP undecyl ester, reference compound]	31	78	12	27		
Nc1ccn([C@@H]2O[C@H](COP(=O)(O)O)[C@@H](O)[C@@H]2O)c(=O)n1 [ara-CMP, arabinofuranosylcytosine-5'-phosphate, reference compound]	21	57		8	73	
